Experimental data as given in ChEMBL document CHEMBL1143809, “New bis-N9-(methylphenylmethyl)purine derivatives: synthesis and antitumor activity” (2007).

Key:
Type in all cases: functional
SNB-19 = experiment: Growth inhibition of human SNB19 cells after 48 hrs by SRB protein assay; conditions: SNB-19, 48 h
KM12 = experiment: Growth inhibition of human KM12 cells after 48 hrs by SRB protein assay; conditions: KM12, 48 h
ACHN = experiment: Growth inhibition of human ACHN cells after 48 hrs by SRB protein assay
CCRF-CEM = experiment: Growth inhibition of human CCRF-CEM cells after 48 hrs by SRB protein assay
[1] = Growth inhibition of human NCL-H522 cells after 48 hrs by SRB protein assay; conditions: NCL-H522, 48 h
K562 = experiment: Growth inhibition of human K562 cells after 48 hrs by SRB protein assay; conditions: K562, 48 h
SF-268 = experiment: Growth inhibition of human SF268 cells after 48 hrs by SRB protein assay; conditions: SF-268, 48 h
T47D = experiment: Growth inhibition of human T47D cells after 48 hrs by SRB protein assay
MCF7 = experiment: Anticancer activity against human MCF7 cells assessed as growth at 100 uM after 48 hrs by SRB protein assay relative to control; conditions: MCF7, 48 h, read-out: Activity
IGROV-1 = experiment: Growth inhibition of human IGROV1 cells after 48 hrs by SRB protein assay; conditions: IGROV-1, 48 h
HCT-15 = experiment: Growth inhibition of human HCT15 cells after 48 hrs by SRB protein assay; conditions: HCT-15, 48 h
MDA-MB-435 = experiment: Growth inhibition of human MDA-MB-435 cells after 48 hrs by SRB protein assay; conditions: MDA-MB-435, 48 h
BT-549 = experiment: Growth inhibition of human BT549 cells after 48 hrs by SRB protein assay; conditions: BT-549, 48 h
OVCAR-3 = experiment: Growth inhibition of human OVCAR-3 cells after 48 hrs by SRB protein assay; conditions: OVCAR-3, 48 h
U-251 = experiment: Growth inhibition of human U251 cells after 48 hrs by SRB protein assay; conditions: U-251, 48 h
NCI/ADR-RES = experiment: Growth inhibition of human NCI/ADR-RES cells after 48 hrs by SRB protein assay
SK-MEL-28 = experiment: Growth inhibition of human SK-MEL-28 cells after 48 hrs by SRB protein assay; conditions: SK-MEL-28, 48 h
RPMI-8226 = experiment: Growth inhibition of human RPMI8226 cells after 48 hrs by SRB protein assay; conditions: RPMI-8226, 48 h
TK-10 = experiment: Growth inhibition of human TK10 cells after 48 hrs by SRB protein assay; conditions: TK-10, 48 h
SF-295 = experiment: Growth inhibition of human SF295 cells after 48 hrs by SRB protein assay; conditions: SF-295, 48 h
HOP-62 = experiment: Growth inhibition of human HOP62 cells after 48 hrs by SRB protein assay; conditions: HOP-62, 48 h
A549 = experiment: Growth inhibition of human A549 cells after 48 hrs by SRB protein assay; conditions: A549, 48 h
RXF 393 = experiment: Growth inhibition of human RXF393 cells after 48 hrs by SRB protein assay; conditions: RXF 393, 48 h
SW-620 = experiment: Growth inhibition of human SW620 cells after 48 hrs by SRB protein assay; conditions: SW-620, 48 h
Hs-578T = experiment: Growth inhibition of human HS578T cells after 48 hrs by SRB protein assay
OVCAR-5 = experiment: Growth inhibition of human OVCAR5 cells after 48 hrs by SRB protein assay; conditions: OVCAR-5, 48 h
OVCAR-8 = experiment: Growth inhibition of human OVCAR8 cells after 48 hrs by SRB protein assay; conditions: OVCAR-8, 48 h
SF-539 = experiment: Growth inhibition of human SF539 cells after 48 hrs by SRB protein assay; conditions: SF-539, 48 h
DU-145 = experiment: Growth inhibition of human DU145 cells after 48 hrs by SRB protein assay; conditions: DU-145, 48 h
PC-3 = experiment: Growth inhibition of human PC3 cells after 48 hrs by SRB protein assay; conditions: PC-3, 48 h
MOLT-4 = experiment: Growth inhibition of human MOLT4 cells after 48 hrs by SRB protein assay; conditions: MOLT-4, 48 h
[2] = Growth inhibition of human NCL-H322M cells after 48 hrs by SRB protein assay
SK-MEL-2 = experiment: Growth inhibition of human SK-MEL-2 cells after 48 hrs by SRB protein assay; conditions: SK-MEL-2, 48 h
[3] = read-out: LC50 (the source's name)

For `Clc1nc(Cl)c2ncn(Cc3cccc(Cn4cnc5c(Cl)nc(Cl)nc54)c3)c2n1`, the GI50 (SNB-19) was 3.02 µM, the TGI (SNB-19) was 13.8 µM and the CC50 (SNB-19; [3]) was 60.2 µM. For the same compound, the GI50 (KM12) was 2.88 µM, the LC50 (concentration killing 50% of cells) (KM12) was 33.1 µM and the TGI (KM12) was 8.91 µM. For the same compound, the GI50 (ACHN) was 2.51 µM, the LC50 (ACHN) was 21.4 µM and the TGI (ACHN) was 6.16 µM. For the same compound, the GI50 (CCRF-CEM) was 2.23 µM, the TGI (CCRF-CEM) was 5.37 µM and the CC50 (CCRF-CEM; [3]) was greater than 100 µM. The GI50 [1] was 2.88 µM, the LC50 [1] was 41.7 µM and the TGI [1] was 7.07 µM. The GI50 (K562) was 3.09 µM, the TGI (K562) was 17 µM and the CC50 (K562; [3]) was greater than 100 µM. The GI50 (SF-268) was 12.9 µM, the LC50 (SF-268) was 75.9 µM and the TGI (SF-268) was 31.6 µM. It also gave a GI50 (T47D) of 3.02 µM, an LC50 (T47D) greater than 100 µM and a TGI (T47D) of 8.51 µM. It also gave a growth at 100 µM (MCF7) of 0%, a GI50 (IGROV-1) of 7.41 µM and an LC50 (50% lethal concentration) (IGROV-1) of 47.9 µM. The TGI (IGROV-1) was 20.4 µM, the GI50 (HCT-15) was 5.75 µM and the LC50 (HCT-15) was 74.1 µM. It also gave a TGI (HCT-15) of 22.4 µM, a GI50 (MDA-MB-435) of 7.24 µM and an LC50 (MDA-MB-435) of 58.9 µM. The TGI (MDA-MB-435) was 22.4 µM, the GI50 (BT-549) was 3.38 µM and the TGI (BT-549) was 11 µM. The CC50 (BT-549; [3]) was 34.7 µM, the GI50 (OVCAR-3) was 2.39 µM and the LC50 (OVCAR-3) was 28.2 µM. For the same compound, the TGI (OVCAR-3) was 7.24 µM, the GI50 (U-251) was 3.89 µM and the TGI (U-251) was 13.8 µM. It also gave a CC50 (U-251; [3]) of 38.9 µM, a GI50 (NCI/ADR-RES) of 12.6 µM and an LC50 (NCI/ADR-RES) of 97.7 µM. It also gave a TGI (NCI/ADR-RES) of 34.7 µM, a GI50 (SK-MEL-28) of 4.26 µM and an LC50 (SK-MEL-28) greater than 100 µM. It also gave a TGI (SK-MEL-28) of 22.4 µM, a GI50 (RPMI-8226) of 2.57 µM and a TGI (RPMI-8226) of 11.2 µM. The CC50 (RPMI-8226; [3]) was greater than 100 µM, the GI50 (TK-10) was 2.45 µM and the LC50 (50% lethal concentration) (TK-10) was 26.9 µM. The TGI (TK-10) was 7.24 µM, the GI50 (SF-295) was 16.6 µM and the LC50 (SF-295) was 57.5 µM. For the same compound, the TGI (SF-295) was 30.9 µM, the GI50 (HOP-62) was 5.01 µM and the LC50 (HOP-62) was 51.3 µM. The TGI (HOP-62) was 17.8 µM, the GI50 (A549) was 11.2 µM and the LC50 (A549) was 61.6 µM. For the same compound, the TGI (A549) was 26.3 µM, the GI50 (RXF 393) was 1.9 µM and the TGI (RXF 393) was 3.71 µM. For the same compound, the CC50 (RXF 393; [3]) was 7.24 µM, the GI50 (SW-620) was 1.82 µM and the TGI (SW-620) was 3.31 µM. It also gave a CC50 (SW-620; [3]) of 6.16 µM, a GI50 (Hs-578T) of 2.69 µM and an LC50 (concentration killing 50% of cells) (Hs-578T) of 83.2 µM. For the same compound, the TGI (Hs-578T) was 7.24 µM, the GI50 (OVCAR-5) was 20.9 µM and the TGI (OVCAR-5) was 38 µM. It also gave a CC50 (OVCAR-5; [3]) of 70.8 µM, a GI50 (OVCAR-8) of 4.67 µM and an LC50 (OVCAR-8) of 72.4 µM. It also gave a TGI (OVCAR-8) of 18.6 µM, a GI50 (SF-539) of 1.38 µM and an LC50 (SF-539) of 7.07 µM. It also gave a TGI (SF-539) of 3.16 µM, a GI50 (DU-145) of 1.73 µM and a TGI (DU-145) of 3.09 µM. It also gave a CC50 (DU-145; [3]) of 5.62 µM, a GI50 (PC-3) of 3.98 µM and a TGI (PC-3) of 13.5 µM. The CC50 (PC-3; [3]) was 40.7 µM, the GI50 (MOLT-4) was 3.46 µM and the LC50 (MOLT-4) was greater than 100 µM. It also gave a TGI (MOLT-4) of 13.8 µM, a GI50 [2] of 14.1 µM and a TGI [2] of 27.5 µM. For the same compound, the CC50 [2, 3] was 52.5 µM, the GI50 (SK-MEL-2) was 2.81 µM and the TGI (SK-MEL-2) was 7.76 µM. For the same compound, the CC50 (SK-MEL-2; [3]) was 35.5 µM.
